Test results reported in US20050239656A1, “Pyridine compounds or salts thereof and herbicides containing the same” (priority 2002, published 2005).

Experiments:
barnyardgrass [1] = test: Test Example 2: soil surface treatment, upland pot test; assay type: in vivo, Echinochloa crus-galli L.
How it was run: (§1)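 A pre-emergence soil application: formulated compound at a predetermined active-ingredient dose, diluted in water to 1,500 L/ha, sprayed on upland soil a day after seeding in 1/170,000 ha pots; growth control rated visually, 0 (untreated level) to 100 (kill), at 20–28 days.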

crabgrass [2] = test: as above; assay type: in vivo, Digitaria sanguinalis L.
How it was run: as §1

green foxtail [3] = test: as above; assay type: in vivo, Setaria viridis L.
How it was run: as §1

redroot pigweed [4] = test: as above; assay type: in vivo, Amaranthus retroflexus L.
How it was run: as §1

prickly sida [5] = test: as above; assay type: in vivo, Sida spinosa L.
How it was run: as §1

velvetleaf [6] = test: as above; assay type: in vivo, Abutilon theophrasti MEDIC.
How it was run: as §1

rice [7] = test: as above; assay type: in vivo, Oryza sativa L.
How it was run: as §1

wheat = test: as above; assay type: in vivo, Triticum spp.; settings: observed 20th to 28th day
Source text: Upland field soil was put into a 1/170,000 ha pot, and seed of various plants (barnyardgrass, crabgrass, green foxtail, redroot pigweed, prickly sida, velvetleaf, rice, wheat, corn, soybean) were sown. On the 1st day after the sowing, a wettable powder or emulsifiable concentrate having the compound of the present invention formulated in accordance with a usual formulation method, was weighed so that the active ingredient would be a predetermined amount, and diluted with water in an amount of 1,500 L/ha. The herbicide thus adjusted was applied by a small size sprayer for soil surface treatment. On the 20th to 28th days after the application of the herbicide, the growth of the respective plants was visually observed, and the herbicidal effects were evaluated by the growth controlling degrees (%) ranging from 0 (equivalent to the non-treated plot) to 100 (complete kill), whereby the results shown in Table 4, were obtained.

corn [8] = test: as above; assay type: in vivo, Zea mays L.
How it was run: as §1

soybean [9] = test: as above; assay type: in vivo, Glycine max Merr.
How it was run: as §1

barnyardgrass [10] = test: Test Example 3: paddy pot test, application under submerged conditions; assay type: in vivo, Echinochloa crus-galli L.; settings: active ingredient 250 g/ha; submerged application at 0.5 leaf stage; visually observed 14 days after application; 0 = non-treated, 100 = complete kill
How it was run: (§2)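 Barnyardgrass and japanese bulrush sown in flooded paddy soil in greenhouse pots, japanese ribbon wapato tubers planted 1–2 days later; water depth kept at 3–4 cm. Diluted wettable powder or emulsifiable concentrate applied into water at 0.5-leaf or primary-leaf stage at set active-ingredient doses. Growth control scored visually at 14 days, 0 (untreated) to 100% (complete kill).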

japanese bulrush = test: as above; assay type: in vivo, Scirpus juncoides; settings: active ingredient 250 g/ha; submerged application at 0.5 leaf stage; visually observed 14 days after application; 0 = non-treated, 100 = complete kill
How it was run: as §2

rice (var. Nihonbare) = test: Test Example 3: paddy pot test, transplanted rice; assay type: in vivo, Oryza sativa L.; settings: active ingredient 250 g/ha, applied 4th day after transplantation, visually observed 21st day after application, 0 = non-treated, 100 = complete kill
How it was run: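 Rice (var. Nihonbare) at 2 leaf stage transplanted 3 cm deep into puddled paddy soil under 3–4 cm flooding; on day 4 after transplanting, diluted wettable powder or emulsifiable concentrate applied by pipette under submerged conditions at a set active-ingredient dose. Growth scored visually 21 days after application, 0 (untreated) to 100 (complete kill) %.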

barnyardgrass [11] = test: Test Example 1: foliage treatment, upland pot test; assay type: in vivo, Echinochloa crus-galli L.; settings: active ingredient 500 g/ha, observed 18th to 23rd day, 0 = non-treated, 100 = complete kill
How it was run: (§3)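 Upland pot test, foliar. Soybean 0.1–0.4 / wheat 1.3–2.4 / rice 1.2–2.6 / barnyardgrass 1.3–2.8 leaf stage at spraying; 500 L/ha carrier, 0.1% (v/v) spreader. Visual % control, 0 untreated to 100 dead, days 18–23.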

crabgrass [12] = test: Test Example 1: foliage treatment, upland pot test; assay type: in vivo, Digitaria sanguinalis L.; settings: active ingredient 500 g/ha, observed 18th to 23rd day, 0 = non-treated, 100 = complete kill
green foxtail [13] = test: Test Example 1: foliage treatment, upland pot test; assay type: in vivo, Setaria viridis L.; settings: active ingredient 500 g/ha, observed 18th to 23rd day, 0 = non-treated, 100 = complete kill
redroot pigweed [14] = test: Test Example 1: foliage treatment, upland pot test; assay type: in vivo, Amaranthus retroflexus L.; settings: active ingredient 500 g/ha, observed 18th to 23rd day, 0 = non-treated, 100 = complete kill
prickly sida [15] = test: Test Example 1: foliage treatment, upland pot test; assay type: in vivo, Sida spinosa L.; settings: active ingredient 500 g/ha, observed 18th to 23rd day, 0 = non-treated, 100 = complete kill
velvetleaf [16] = test: Test Example 1: foliage treatment, upland pot test; assay type: in vivo, Abutilon theophrasti MEDIC.; settings: active ingredient 500 g/ha, observed 18th to 23rd day, 0 = non-treated, 100 = complete kill
rice [17] = test: Test Example 1: foliage treatment, upland pot test; assay type: in vivo, Oryza sativa L.; settings: crop, active ingredient 500 g/ha, observed 18th to 23rd day, 0 = non-treated, 100 = complete kill
How it was run: as §3

corn [18] = test: Test Example 1: foliage treatment, upland pot test; assay type: in vivo, Zea mays L.; settings: crop, active ingredient 500 g/ha, observed 18th to 23rd day, 0 = non-treated, 100 = complete kill
How it was run: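 Corn seeds were sown in upland field soil held in a 1/170,000 ha pot and grown to the 2.1 to 3.2 leaf stage. A wettable powder or emulsifiable concentrate of the test compound was diluted with water at 500 L/ha, given 0.1% (v/v) agricultural spreader, and sprayed onto the foliage with a small sprayer. Growth controlling degree (%) was scored visually 18th to 23rd days later, from 0 (non-treated) to 100 (complete kill).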

soybean [19] = test: Test Example 1: foliage treatment, upland pot test; assay type: in vivo, Glycine max Merr.; settings: crop, active ingredient 500 g/ha, observed 18th to 23rd day, 0 = non-treated, 100 = complete kill
How it was run: as §3

japanese ribbon wapato = test: Test Example 3: paddy pot test, application under submerged conditions; assay type: in vivo, Sagittaria pygniaea; settings: active ingredient 250 g/ha; submerged application at primary leaf stage; visually observed 14 days after application; 0 = non-treated, 100 = complete kill
How it was run: as §2

[20] = active ingredient 500 g/ha, observed 20th to 28th day
[21] = active ingredient 250 g/ha, observed 20th to 28th day
[22] = active ingredient 500 g/ha, observed day 21, 0 = non-treated, 100 = complete kill

Compound	Growth controlling degree (%) Barnyardgrass (barnyardgrass [10])	Growth controlling degree (%) Japanese bulrush (japanese bulrush)	Growth controlling degree (%) Rice (rice (var. Nihonbare))	Growth controlling degree (%) Barnyardgrass (barnyardgrass [11])	Growth controlling degree (%) Crabgrass (crabgrass [12])	Growth controlling degree (%) Green foxtail (green foxtail [13])	Growth controlling degree (%) Redroot pigweed (redroot pigweed [14])	Growth controlling degree (%) Prickly sida (prickly sida [15])	Growth controlling degree (%) Velvetleaf (velvetleaf [16])	Growth controlling degree (%) Rice (rice [17])	Growth controlling degree (%) Corn (corn [18])	Growth controlling degree (%) Soybean (soybean [19])	Growth controlling degree (%) Barnyardgrass (barnyardgrass [1]; [22])	Growth controlling degree (%) Crabgrass (crabgrass [2]; [22])	Growth controlling degree (%) Green foxtail (green foxtail [3]; [22])	Growth controlling degree (%) Redroot pigweed (redroot pigweed [4]; [22])	Growth controlling degree (%) Prickly sida (prickly sida [5]; [22])	Growth controlling degree (%) Velvetleaf (velvetleaf [6]; [22])	Growth controlling degree (%) Rice (rice [7]; [22])	Growth controlling degree (%) Corn (corn [8]; [22])	other results
CC(C)C(c1cnccc1C(F)(F)F)N(C)S(=O)(=O)c1ccccc1Cl (racemic) [Compound I-126]																					Growth controlling degree (%) Barnyardgrass (barnyardgrass [1]; [20]): 80%; Growth controlling degree (%) Crabgrass (crabgrass [2]; [20]): 30%; Growth controlling degree (%) Green foxtail (green foxtail [3]; [20]): 70%; Growth controlling degree (%) Redroot pigweed (redroot pigweed [4]; [20]): 30%; Growth controlling degree (%) Prickly sida (prickly sida [5]; [20]): 50%; Growth controlling degree (%) Velvetleaf (velvetleaf [6]; [20]): 10%; Growth controlling degree (%) Rice (rice [7]; [20]): 20%; Growth controlling degree (%) wheat (wheat; active ingredient 500 g/ha): 10%; Growth controlling degree (%) Corn (corn [8]; [20]): 0%; Growth controlling degree (%) Soyabean (soybean [9]; [20]): 0%
CC(C)C(c1cnccc1C(F)(F)F)N(C)C(=O)Cc1ccc(Br)c(F)c1 (racemic) [Compound I-129]	100%	90%	0%																		Growth controlling degree (%) Barnyardgrass (barnyardgrass [1]; [20]): 98%; Growth controlling degree (%) Crabgrass (crabgrass [2]; [20]): 98%; Growth controlling degree (%) Green foxtail (green foxtail [3]; [20]): 100%; Growth controlling degree (%) Redroot pigweed (redroot pigweed [4]; [20]): 40%; Growth controlling degree (%) Prickly sida (prickly sida [5]; [20]): 70%; Growth controlling degree (%) Velvetleaf (velvetleaf [6]; [20]): 10%; Growth controlling degree (%) Rice (rice [7]; [20]): 30%; Growth controlling degree (%) wheat (wheat; active ingredient 500 g/ha): 30%; Growth controlling degree (%) Corn (corn [8]; [20]): 30%; Growth controlling degree (%) Soyabean (soybean [9]; [20]): 10%
CC(C)C(c1cnccc1C(F)(F)F)N(C)C(=O)Cc1ccc(Br)cc1F (racemic) [Compound I-137]	100%	98%	0%																		Growth controlling degree (%) Barnyardgrass (barnyardgrass [1]; [21]): 98%; Growth controlling degree (%) Crabgrass (crabgrass [2]; [21]): 98%; Growth controlling degree (%) Green foxtail (green foxtail [3]; [21]): 100%; Growth controlling degree (%) Redroot pigweed (redroot pigweed [4]; [21]): 50%; Growth controlling degree (%) Prickly sida (prickly sida [5]; [21]): 50%; Growth controlling degree (%) Velvetleaf (velvetleaf [6]; [21]): 50%; Growth controlling degree (%) Rice (rice [7]; [21]): 40%; Growth controlling degree (%) wheat (wheat; active ingredient 250 g/ha): 30%; Growth controlling degree (%) Corn (corn [8]; [21]): 10%; Growth controlling degree (%) Soyabean (soybean [9]; [21]): 20%
CCC(C)C(c1cnccc1C(F)(F)F)N(C)C(=O)Cc1ccccc1 (stereo not shown) [I-260]	100%	98%	10%	80%	80%	50%	40%	95%	90%	40%	80%	90%	80%	98%	100%	70%	95%	70%	10%	30%	Growth controlling degree (%) Soyabean (soybean [9]; [22]): 20%; Growth controlling degree (%) Japanese ribbon wapato (japanese ribbon wapato): 60%
CCC(C)C(c1cnccc1C(F)(F)F)N(C)C(=O)COc1ccccc1 (stereo not shown) [I-261]	100%	95%	20%	70%	60%	60%	50%	60%	50%	20%	10%	80%	90%	100%	100%	70%	98%	50%	20%	20%	Growth controlling degree (%) Soyabean (soybean [9]; [22]): 20%; Growth controlling degree (%) Japanese ribbon wapato (japanese ribbon wapato): 70%
CCC(CC)C(c1cnccc1C(F)(F)F)N(C)C(=O)Cc1ccccc1 (stereo not shown) [I-262]	98%	95%	0%	80%	80%	70%	70%	95%	90%	35%	60%	80%	20%	100%	95%	70%	90%	60%	50%	40%	Growth controlling degree (%) Soyabean (soybean [9]; [22]): 20%; Growth controlling degree (%) Japanese ribbon wapato (japanese ribbon wapato): 30%
CCC(CC)C(c1cnccc1C(F)(F)F)N(C)C(=O)COc1ccccc1 (stereo not shown) [I-263]	5%	90%	0%	80%	80%	70%	70%	90%	95%	60%	40%	80%	10%	95%	60%	70%	70%	40%	40%	20%	Growth controlling degree (%) Soyabean (soybean [9]; [22]): 10%; Growth controlling degree (%) Japanese ribbon wapato (japanese ribbon wapato): 20%
